Assay results reported in US7816535B2, “Vinyl-phenyl derivatives for inflammation and immune-related uses” (Synta Pharmaceuticals Corp., priority 2006, dated 2010).

Test system: IL-2 production
Experiment: Inhibition of IL-2 production in PHA-activated Jurkat cells (ELISA)
Type: cell-based
Conditions: Homo sapiens, Jurkat, 20 h, PHA 2.5 μg/mL, IL-2 ELISA
Protocol: Jurkat cells were placed in a 96 well plate (0.5 million cells per well in 1% FBS medium) then a test compound of this invention was added at different concentrations. After 10 minutes, the cells were activated with PHA (final concentration 2.5 μg/mL) and incubated for 20 hours at 37° C. under CO2. The final volume was 200 μL. Following incubation, the cells were centrifuged and the supernatants collected and stored at −70° C. prior to assaying for IL-2 production. A commercial ELISA kit (IL-2 Eli-pair, Diaclone Research, Besancon, France) was used to detect production of IL-2, from which dose response curves were obtained. The IC50 value was calculated as the concentration at which 50% of maximum IL-2 production after stimulation was inhibited versus a non-stimulation control.

CC(C)=C(c1ccccc1)c1ccc(NC(=O)c2c(F)cccc2F)cc1 [Compound 92, 2,6-Difluoro-N-[4-(2-methyl-1-phenyl-propenyl)-phenyl]-benzamide]
IC50: 43.8 nM

COc1ccc(C(=C(C)C)c2ccc(NC(=O)c3c(F)cccc3F)cc2)cc1 [Compound 93, 2,6-Difluoro-N-{4-[2-methyl-1-(4-methoxy-phenyl)-propenyl]-phenyl}-benzamide]
IC50: 54.6 nM

COc1cccc(C(=C(C)C)c2ccc(NC(=O)c3c(F)cccc3F)cc2)c1 [Compound 94, 2,6-Difluoro-N-{4-[2-methyl-1-(3-methoxy-phenyl)-propenyl]-phenyl}-benzamide]
IC50: 138 nM

COc1ccccc1C(=C(C)C)c1ccc(NC(=O)c2c(F)cccc2F)cc1 [Compound 95, 2,6-Difluoro-N-{4-[2-methyl-1-(2-methoxy-phenyl)-propenyl]-phenyl}-benzamide]
IC50: 156 nM

CC(=O)OCC(C)=C(C)c1ccc(NC(=O)c2c(F)cccc2F)cc1 [Compound 96, 2,6-Difluoro-N-[4-(1,2-dimethyl-3-acetoxy-propenyl)-phenyl]-benzamide]
IC50: 631 nM

CCOC(=O)C1=C(c2ccc(NC(=O)c3c(F)cccc3F)cc2)CCCC1 [Compound 99, N-[4-(2-ethyoxycarbonyl-cyclohex-1-enyl)-phenyl]-2,6-difluoro-benzamide]
IC50: 282 nM

O=CC1=C(c2ccc(NC(=O)c3c(F)cccc3F)cc2)CCCC1 [Compound 100, N-[4-(2-formyl-cyclohex-1-enyl)-phenyl]-2,6-difluoro-benzamide]
IC50: 90 nM

C=CC1=C(c2ccc(NC(=O)c3c(F)cccc3F)cc2)CCCC1 [Compound 101, N-[4-(2-vinyl-cyclohex-1-enyl)-phenyl]-2,6-difluoro-benzamide]
IC50: 11 nM

COC(=O)N1CCC(C)=C(c2ccc(NC(=O)c3ccncc3C)cc2)C1 [Compound 103, N-[4-(1-methoxycarbonyl-4-methyl-1,2,5,6-tetrahydro-pyridin-3-yl)-phenyl]-3-methyl-isonicotinamide]
IC50: 150 nM
